Measurements reported in US20080058330A1, “Compounds and Combinations Thereof for Inhibiting Beta-Amyloid Production and Methods of Use Thereof” (Roskamp Research LLC, priority 2006, published 2008).

Tested on: not given
Assay: not given
Details: not given

SMILES | melting point [°C]
CCOC(=O)C1=C(C)NC(C)=C(C(=O)OCC)C1c1ccccc1Cl [Example 6, Diethyl 4-(2-chlorophenyl)-1,4-dihydro-2,6-dimethylpyridine-3,5-dicarboxylate] | 120 to 121
CC(=O)C1=C(C)NC(C)=C(C(C)=O)C1c1ccccc1Cl [Example 7, 4-(2-Chlorophenyl)-1,4-dihydro-2,6-dimethylpyridine-3,5-di(2-ethanone)] | 196 to 197
COC(=O)C1=C(C)NC(C)=C(C(=O)OC)C1c1ccccc1Cl [Example 8, Dimethyl 4-(2-chlorophenyl)-1,4-dihydro-2,6-dimethylpyridine-3,5-dicarboxylate] | 188 to 189
CC1=C(C(=O)OC(C)(C)C)C(c2ccccc2Cl)C(C(=O)OC(C)(C)C)=C(C)N1 [Example 9, Di-tert-butyl 4-(2-chlorophenyl)-1,4-dihydro-2,6-dimethylpyridine-3,5-dicarboxylate] | 194 to 196
COCCOC(=O)C1=C(C)NC(C)=C(C(=O)OCCOC)C1c1ccccc1Cl [Example 10, Bis(2-methoxyethyl) 4-(2-chlorophenyl)-1,4-dihydro-2,6-dimethylpyridine-3,5-dicarboxylate] | 120 to 121
CCOC(=O)C1=C(C)NC(C)=C(C(=O)OCC)C1c1ccccc1Br [Example 11, Diethyl 4-(2-bromophenyl)-1,4-dihydro-2,6-dimethylpyridine-3,5-dicarboxylate] | 144 to 145
CC1=C(C(=O)OC(C)(C)C)C(c2ccccc2F)C(C(=O)OC(C)(C)C)=C(C)N1 [Example 13, Di-tert-butyl 4-(2-fluorophenyl)-1,4-dihydro-2,6-dimethylpyridine-3,5-dicarboxylate] | 201 to 202
CC1=C(C(=O)OC(C)(C)C)C(c2ccccc2Br)C(C(=O)OC(C)(C)C)=C(C)N1 [Example 14, Di-tert-butyl 4-(2-bromophenyl)-1,4-dihydro-2,6-dimethylpyridine-3,5-dicarboxylate] | 162 to 164
CCOC(=O)C1=C(C)NC(C)=C(C(=O)OCC)C1c1ccccc1[N+](=O)[O-] [Example 14, Diethyl 1,4-dihydro-2,6-dimethyl-4-(2-nitrophenyl)pyridine-3,5-dicarboxylate] | 120 to 121
CC1=C(C(=O)OC(C)(C)C)C(c2ccccc2[N+](=O)[O-])C(C(=O)OC(C)(C)C)=C(C)N1 [Example 15, Di-tert-butyl 1,4-dihydro-2,6-dimethyl-4-(2-nitrophenyl)pyridine-3,5-dicarboxylate] | 159 to 161
C=CCOC(=O)C1=C(C)NC(C)=C(C(=O)OCC=C)C1c1ccccc1Cl [Example 16, Diallyl 4-(2-chlorophenyl)-1,4-dihydro-2,6-dimethylpyridine-3,5-dicarboxylate] | 98 to 99
COCC1=C(C(=O)OC)C(c2ccccc2Cl)C(C(=O)OC)=C(COC)N1 [Example 17, Dimethyl 4-(2-chlorophenyl)-1,4-dihydro-2,6-bis(methoxymethyl)pyridine-3,5-dicarboxylate] | 137 to 138
CCOC(=O)C1=C(C)NC(C)=C(C(=O)OCC)C1c1ccccc1I [Example 18, Diethyl 1,4-dihydro-4-(2-iodophenyl)-2,6-dimethylpyridine-3,5-dicarboxylate] | 173 to 174.5

The remaining lines, values ahead:

melting point [°C] | SMILES
164 to 165 | COC(=O)C1=C(C)NC(C)=C(C(=O)OC)C1c1ccccc1Br [Example 19, Dimethyl 4-(2-bromophenyl)-1,4-dihydro-2,6-dimethylpyridine-3,5-dicarboxylate]
189.5 to 190.5 | CC1=C(C(=O)OC(C)(C)C)C(c2cccc(Cl)c2)C(C(=O)OC(C)(C)C)=C(C)N1 [Example 21, Di-tert-butyl 4-(3-chlorophenyl)-1,4-dihydro-2,6-dimethylpyridine-3,5-dicarboxylate]
151 to 152 | CCOC(=O)C1=C(C)NC(C)=C(C(=O)OCC)C1c1ccc(Cl)cc1 [Example 22, Diethyl 4-(4-chlorophenyl)-1,4-dihydro-2,6-dimethylpyridine-3,5-dicarboxylate]
191.5 to 192.5 | CC1=C(C(=O)OC(C)(C)C)C(c2ccc(Cl)cc2)C(C(=O)OC(C)(C)C)=C(C)N1 [Example 23, Di-tert-butyl 4-(4-chlorophenyl)-1,4-dihydro-2,6-dimethylpyridine-3,5-dicarboxylate]
125 to 126 | CCOC(=O)C1=C(C)NC(C)=C(C(=O)OCC)C1c1cccc(Br)c1 [Example 24, Diethyl 4-(3-bromophenyl)-1,4-dihydro-2,6-dimethylpyridine-3,5-dicarboxylate]
195 to 196 | CC1=C(C(=O)OC(C)(C)C)C(c2cccc(Br)c2)C(C(=O)OC(C)(C)C)=C(C)N1 [Example 25, Di-tert-butyl 4-(3-bromophenyl)-1,4-dihydro-2,6-dimethylpyridine-3,5-dicarboxylate]
206 to 207 | CC1=C(C(=O)OC(C)(C)C)C(c2ccc(Br)cc2)C(C(=O)OC(C)(C)C)=C(C)N1 [Example 27, Di-tert-butyl 4-(4-bromophenyl)-1,4-dihydro-2,6-dimethylpyridine-3,5-dicarboxylate]
184 to 185 | CC1=C(C(=O)OC(C)(C)C)C(c2ccccc2I)C(C(=O)OC(C)(C)C)=C(C)N1 [Example 28, Di-tert-butyl 1,4-dihydro-4-(2-iodophenyl)-2,6-dimethylpyridine-3,5-dicarboxylate]
125 to 126 | CCOC(=O)C1=C(C)NC(C)=C(C(=O)OCC)C1c1cccc(Cl)c1Cl [Example 31, Diethyl 4-(2,3-dichlorophenyl)-1,4-dihydro-2,6-dimethylpyridine-3,5-dicarboxylate]
144 to 145 | CC1=C(C(=O)OC(C)(C)C)C(c2cccc(Cl)c2Cl)C(C(=O)OC(C)(C)C)=C(C)N1 [Example 32, Di-tert-butyl 4-(2,3-dichlorophenyl)-I14-dihydro-2,6-dimethylpyridine-3,5-dicarboxylate]
166.5 to 167.5 | CCOC(=O)C1=C(C)NC(C)=C(C(=O)OCC)C1c1cc(Cl)ccc1Cl [Example 34, Diethyl 4-(2,5-dichlorophenyl)-1,4-dihydro-2,6-dimethylpyridine-3,5-dicarboxylate]
181 to 183 | CC1=C(C(=O)OC(C)(C)C)C(c2cc(Cl)ccc2Cl)C(C(=O)OC(C)(C)C)=C(C)N1 [Example 35, Di-tert-butyl 4-(2,5-dichlorophenyl)-1,4-dihydro-2,6-dimethylpyridine-3,5-dicarboxylate]
134 to 135 | CCOC(=O)C1=C(C)NC(C)=C(C(=O)OCC)C1c1c(Cl)cccc1Cl [Example 36, Diethyl 4-(2,6-dichlorophenyl)-1,4-dihydro-2,6-dimethylpyridine-3,5-dicarboxylate]

Tested on: 7W WT APP751 CHO cells
Assay: Screening of dihydropyridine compounds (Maybridge), Aβ1-40 and Aβ1-42 ELISA (Example 2)
Format: cell-based, Chinese hamster
Details: 30 μM, 24 hours (FIG. 5A, 5B)
Experimental: Dihydropyridine compounds were obtained from Maybridge (England). Each compound was dissolved in DMSO. 7W WT APP751 CHO cells overexpressing APP751 were plated into 96-well culture plates in 200 μL of culture medium. Each compound from the library was added to confluent cells to a final concentration of 30 μM. After 24 hours of treatment, culture medium was collected and dissolved 10-fold and 2-fold for measuring the level of Aβ1-40 and Aβ1-42, respectively. Aβ1-40 and Aβ1-42 were determined using commercially available ELISAs (Biosource, CA), following the recommendations of the manufacturer.

SMILES | concentration of Aβ1-40 compared to controls | concentration of total β-amyloid (Aβ1-40+Aβ1-42) compared to controls | concentration of Aβ1-42 compared to controls
CCOC(=O)C1=C(C)NC(C)=C(C(=O)OCC)C1c1ccccc1[N+](=O)[O-] [JFD 03311, diethyl 2,6-dimethyl-4-(2-nitrophenyl)-1,4-dihydropyridine-3,5-dicarboxylate] | significantly decreased | significantly decreased | –
CCOC(=O)C1=C(C)NC(C)=C(C(=O)OCC)C1c1ccc(F)cc1 [JFD 03318, diethyl 4-(4-fluorophenyl)-2,6-dimethyl-1,4-dihydropyridine-3,5-dicarboxylate] | significantly decreased | significantly decreased | significantly decreased
O=C1CC(c2ccccc2)CC(=O)N1c1ccc(Oc2ccc(Cl)cc2)cc1 [PD 00463, 1-[4-(4-chlorophenoxy)phenyl]-4-phenyldihydropyridine-2,6(1H,3H)-dione] | significantly decreased | significantly decreased | significantly decreased
CCOC(=O)C1=C(C)NC(C)=C(C(=O)OCC)C1c1ccc(Cl)cc1Cl [RJC 03403, diethyl 4-(2,4-dichlorophenyl)-2,6-dimethyl-1,4-dihydro-3,5-pyridinedicarboxylate] | significantly decreased | significantly decreased | significantly decreased
CCOC(=O)C1=C(C)NC(C)=C(C(=O)OCC)C1c1ccc(-c2ccccc2C(F)(F)F)o1 [RJC 03405, diethyl 2,6-dimethyl-4-{5-[2-(trifluoromethyl)phenyl]-2-furyl}-1,4-dihydro-3,5-pyridinedicarboxylate] | significantly decreased | significantly decreased | –
CCOC(=O)C1=C(C)NC(C)=C(C(=O)OCC)C1c1ccc(OC)cc1Cl [RJC 03413, diethyl 4-(2-chloro-4-methoxyphenyl)-2,6-dimethyl-1,4-dihydro-3,5-pyridinedicarboxylate] | significantly decreased | significantly decreased | –
COC(=O)C1=C(C)NC(C)=C(C(=O)OC)C1c1ccc(-c2ccsc2C(=O)OC)o1 [SEW 02070, dimethyl 4-{5-[2-(methoxycarbonyl)-3-thienyl]-2-furyl}-2,6-dimethyl-1,4-dihydropyridine-3,5-dicarboxylate] | significantly decreased | significantly decreased | –
CCOC(=O)C1=C(C)NC(C)=C(C(=O)OCC)C1c1cccc([N+](=O)[O-])c1 [XBX 00343, diethyl 2,6-dimethyl-4-(3-nitrophenyl)-1,4-dihydropyridine-3,5-dicarboxylate] | significantly decreased | significantly decreased | –
